In assay [1] the test system is MRC5 (human lung fibroblast). Nature of the assay: Cytotoxic activity, alamarBlue assay, 72 h (noncancer cells). The class given is cell-based. The note with it: Homo sapiens. The text has this:
(§1) MCF7 (human breast carcinoma), HCT116 (human colon carcinoma), HepG2 (human hepatocellular carcinoma), SCC-9 (human oral squamous cell carcinoma), HSC-3 (human oral squamous cell carcinoma), HL-60 (human promyelocytic leukemia), K-562 (human chronic myelogenous leukemia), B16-F10 (murine melanoma), MRC-5 (human lung fibroblast), WT SV40 MEF (wild-type immortalized mouse embryonic fibroblast), and BAD KO SV40 MEF (BAD gene knockout immortalized mouse embryonic fibroblast) cell lines were obtained from the American Type Culture Collection (ATCC, Manassas, VA, USA). Cells were cultured in complete medium with appropriate supplements as recommended by ATCC. All cell lines were tested for mycoplasma using the Mycoplasma Stain Kit (Sigma-Aldrich) to validate the use of cells free from contamination. Primary cell culture of peripheral blood mononuclear cells (PBMC) was obtained by standard Ficoll density protocol. The Research Ethics Committee of the Oswaldo Cruz Foundation (Salvador, BA, Brazil) approved the experimental protocol (number 031019/2013). Cell viability was examined using trypan blue exclusion assay for all experiments.
(§2) Cell viability was quantified using the alamarBlue assay according to Ahmed et al.. Cells were inserted in 96-well plates for all experiments (7 × 10^4 cells/mL for adherent cells or 3 × 10^5 cells/mL for suspended cells in 100 μL of medium). After 24 h, xylopine was dissolved in dimethyl sulfoxide (DMSO) and added to each well and incubated for 72 h. […] Four (for cell lines) or 24 h (for PBMCs) before the end of incubation, 20 μL of a stock solution (0.312 mg/mL) of the alamarBlue (resazurin, Sigma-Aldrich Co., Saint Louis, MO, USA) was added to each well. Absorbance at 570 nm and 600 nm was measured using the SpectraMax 190 Microplate Reader (Molecular Devices, Sunnyvale, CA, USA), and the drug effect was quantified as the percentage of control absorbance.

The test system of assay [2] is PBMC (human peripheral blood mononuclear cells). The assay is described as above. The class given is cell-based. The note with it: Homo sapiens.
Excerpt: as §1, §2

Assay [3] concerns BAD KO SV40 MEF (BAD gene knockout immortalized mouse embryonic fibroblast). Put plainly: Cytotoxic activity in BAD gene knockout fibroblasts. The class given is cell-based. The note with it: BAD KO SV40 MEF cell line.
Excerpt: as §1, §2

Assay [4] has as its system WT SV40 MEF (wild-type immortalized mouse embryonic fibroblast). Put plainly: Cytotoxic activity in wild-type fibroblasts. The note with it: WT SV40 MEF cell line. It counts as cell-based.
Excerpt: as §1, §2

Assay [5] deals with cancer multicellular spheroids formed from HCT116 cells. Nature of the assay: 3D multicellular spheroids culture, alamarBlue assay, 72 h. It counts as cell-based, human. The method, then:
HCT116 cells were cultivated in three-dimensional (3D) multicellular spheroids. Briefly, 100 μL of a solution of cells (0.5 × 10^6 cells/mL) was inserted in 96-well plates with a cell-repellent surface (Greiner Bio-One, Kremsmünster, Austria) and cultured in complete medium plus 3% Matrigel (BD Biosciences, San Jose, CA, USA). Spheroids with stable structures had formed after three days. Then, the spheroids were exposed to a range of drug concentrations for 72 h, after which the cell viability was quantified by alamarBlue assay as described above.
(In general: Resazurin is reduced to fluorescent resorufin, in cell work by metabolically active cells.)

The test system of assay [6] is HCT116 cells. Nature of the assay: Mitochondrial transmembrane potential (rhodamine 123). The class given is cell-based, human. The note with it: HCT116, rhodamine 123, 24 h, p < 0.05. The method, then:
Mitochondrial transmembrane potential was determined by the retention of the dye rhodamine 123 [9]. Cells were incubated with rhodamine 123 (5 μg/mL, Sigma-Aldrich Co.) at room temperature for 15 min in the dark and washed with saline. The cells were then incubated again in saline for 30 min in the dark and cell fluorescence was determined by flow cytometry as described above.

Assay [7] has as its system caspase-3 in HCT116 cells. Nature of the assay: Caspase-3 activation assay (colorimetric, Ac-DEVD-pNA). The class given is cell-based, human. Particulars: HCT116, 48 h, p < 0.05. The method, then:
A Caspase-3 Colorimetric Assay Kit (Sigma-Aldrich Co.) was used to investigate caspase-3 activation in xylopine-treated HCT116 cells based on the cleavage of Ac-DEVD-pNA and the analysis was performed according to the manufacturer's instructions.

Assay [8] relates to HCT116 cells. Put plainly: Cellular reactive oxygen species levels (DCF-DA). It counts as cell-based, human. The method, then: The levels of reactive oxygen species (ROS) were measured according to previously described using 2′,7′-dichlorofluorescin diacetate (DCF-DA) (Sigma-Aldrich Co.). In brief, cells were treated with xylopine for 1 and 3 h. Then, the cells were collected, washed with saline, and resuspended in FACS tubes with saline containing 5 μM DCF-DA for 30 min. Finally, the cells were washed with saline and the cell fluorescence was determined by flow cytometry as described above. The protection assay using the antioxidant NAC and catalase (Sigma-Aldrich Co.) was performed. In brief, the cells were pretreated for 1 h with 5 mM NAC or 2000 UI catalase and then incubated with xylopine in the established concentration for 1 h. The cells were then trypsinized and the ROS levels were measured as described above.

The subject of assay [9] is HCT116 cells. Put plainly: Nitric oxide production (DAF-FM diacetate). It counts as cell-based, human. The note with it: 1 h. The method, then:
Nitric oxide generation was detected with 4-amino-5-methylamino-2′-,7′-difluofluorescein diacetate (DAF-FM diacetate) (Molecular Probes, Eugene, OR, USA). The cells were labeled with 3 μM of DAF-FM diacetate for 60 minutes at 37°C. Following staining cells were washed with saline and incubated for an additional 15 minutes at 37°C to allow for complete deesterification of the intracellular diacatates. Then, the nitric oxide radical was measured by flow cytometry as described above.

In assay [10] the test system is HCT116 cells. Put plainly: Cellular GSH level. It counts as cell-based, human. Particulars: HCT116, 1 h. The method, then:
A quantification kit for reduced glutathione (L-γ-glutamyl-L-cysteinyl-glycine, GSH, Sigma-Aldrich Co.) was used to investigate cellular GSH level in xylopine-treated HCT116 cells and the analysis was performed according to the manufacturer's instructions.

Assay [11] has as its system HCT116 cells. Nature of the assay: Morphological analysis (May-Grünwald-Giemsa). It counts as cell-based, human. Particulars: 24 and 48 h, DOX 1 μM, OXA 2.5 μM. The method, then: To evaluate alterations in morphology, cells were cultured under coverslip and stained with May-Grünwald-Giemsa. Morphological changes were examined by light microscopy using Image-Pro software.

The values that follow come from publication PMC5736936, “Xylopine Induces Oxidative Stress and Causes G2/M Phase Arrest, Triggering Caspase-Mediated Apoptosis by p53-Independent Pathway in HCT116 Cells” (Oxidative Medicine and Cellular Longevity, 2017).

`COc1ccc2c(c1)C[C@@H]1NCCc3cc4c(c-2c31)OCO4` [XYL, xylopine]: the half-maximal inhibitory concentration (IC50) (usually the midpoint of a concentration-inhibition curve) in assay [1] was found to be 24.1 µM; in assay [2], 18.3 µM; in [3], 6.4 µM; in assay [4], 8 µM; in [5] (Homo sapiens, HCT-116, 3D spheroids of HCT116, alamarBlue, 72 h) it was 24.6 µM. For the same molecule, the morphology of spheroids result in assay [5] (3D spheroids of HCT116, light microscopy) was “morphological alterations that indicate drug permeability and cytotoxicity in the 3D culture”. The mitochondrial depolarization result in the assay on HCT116 cells [6] is “induced mitochondrial depolarization”. Moreover, the caspase-3 activation result in assay [7] is “increased caspase-3 activation”. Also, in the assay on HCT116 cells [8] (HCT116, 5 mM NAC 1 h, then 14 μM xylopine 1 h), the “xylopine-induced increase in intracellular ROS level on cotreatment with NAC” value is “prevented”. Moreover, the “xylopine-induced increase in intracellular ROS levels on cotreatment with catalase” value in the assay with HCT116 cells [8] (HCT116, 2000 UI catalase 1 h, then 14 μM xylopine 1 h) was “prevented”. Further, the ROS levels entry in the assay on HCT116 cells [8] (HCT116, DCF-DA, 1 and 3 h) is “caused an increase in the ROS levels”. For the same molecule, in the assay on HCT116 cells [9], the nitric oxide level entry is listed as “increases nitric oxide”. Further, the GSH levels entry in the assay on HCT116 cells [10] is “decreased”. Further, in the assay on HCT116 cells [11], the cell morphology result was “reduction in the cell volume, chromatin condensation, and fragmentation of the nuclei”.
